Source: patent US10479780B2, “Aminopyrazole derivatives” (Chugai Seiyaku Kabushiki Kaisha, priority 2015, dated 2019)
pIC50: −log10 of the molar value.

What was measured:
Format in all cases: biochemical
human Lck enzyme = molecular target: T1, human Lck enzyme (Homo sapiens, UniProt P06239); experiment: Lck enzyme inhibitory activity (time-resolved fluorometry, biotinylated peptide phosphorylation); conditions: biotinylated peptide phosphorylation, read-out: LCK_IC50
T1 construct: purchased Carna Biosciences, Inc. 08-170
T1 sequence (P06239 whole entry): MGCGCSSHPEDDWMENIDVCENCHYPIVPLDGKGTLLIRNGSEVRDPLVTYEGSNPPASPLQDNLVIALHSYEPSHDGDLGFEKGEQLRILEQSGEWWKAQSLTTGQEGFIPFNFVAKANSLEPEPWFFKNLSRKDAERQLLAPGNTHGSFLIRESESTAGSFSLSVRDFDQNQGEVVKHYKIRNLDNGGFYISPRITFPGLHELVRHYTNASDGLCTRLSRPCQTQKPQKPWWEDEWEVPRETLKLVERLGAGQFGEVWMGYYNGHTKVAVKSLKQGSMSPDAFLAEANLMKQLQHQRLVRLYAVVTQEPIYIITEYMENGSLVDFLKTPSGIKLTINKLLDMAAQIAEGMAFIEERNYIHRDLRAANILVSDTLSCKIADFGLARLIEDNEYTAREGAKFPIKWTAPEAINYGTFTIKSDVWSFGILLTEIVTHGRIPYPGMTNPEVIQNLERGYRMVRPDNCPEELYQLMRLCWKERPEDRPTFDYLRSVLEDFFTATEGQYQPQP
Method in brief: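 Readout pairs a europium cryptate-labelled anti-phosphotyrosine antibody with XL665-streptavidin, measured by time-resolved fluorescence. IC50 derived from percent inhibition against untreated controls.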

human Src enzyme = molecular target: T2, human Src enzyme (Homo sapiens, UniProt P12931); experiment: Src enzyme inhibitory activity (time-resolved fluorometry, biotinylated peptide phosphorylation); conditions: biotinylated peptide phosphorylation, read-out: SRC_IC50
T2 construct: purchased Carna Biosciences, Inc. 08-173
T2 sequence (P12931 whole entry): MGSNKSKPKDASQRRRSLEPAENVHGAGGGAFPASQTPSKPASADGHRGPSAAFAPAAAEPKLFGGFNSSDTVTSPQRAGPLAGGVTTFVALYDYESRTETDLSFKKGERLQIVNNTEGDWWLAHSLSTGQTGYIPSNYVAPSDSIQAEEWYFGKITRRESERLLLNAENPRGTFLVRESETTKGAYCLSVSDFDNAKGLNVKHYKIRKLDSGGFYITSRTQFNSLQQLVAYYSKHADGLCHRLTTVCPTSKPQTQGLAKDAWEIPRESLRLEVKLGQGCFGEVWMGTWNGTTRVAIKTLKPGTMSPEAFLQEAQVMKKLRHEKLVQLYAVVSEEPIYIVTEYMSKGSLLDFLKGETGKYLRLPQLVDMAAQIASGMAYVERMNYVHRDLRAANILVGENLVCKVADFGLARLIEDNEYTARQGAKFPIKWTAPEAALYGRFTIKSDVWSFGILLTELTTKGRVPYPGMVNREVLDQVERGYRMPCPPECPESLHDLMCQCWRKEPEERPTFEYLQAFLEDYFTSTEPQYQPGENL
Method in brief: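 Compounds were tested for blocking tyrosine phosphorylation of a biotinylated peptide substrate by recombinant human Src. Phosphorylated product was quantified by time-resolved fluorometry using europium cryptate and XL665 conjugates, and IC50 was calculated against the compound-free control.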

human Yes1 enzyme = molecular target: T3, human Yes1 enzyme (Homo sapiens, UniProt P07947); experiment: Yes1 enzyme inhibitory activity (time-resolved fluorometry, biotinylated peptide phosphorylation); conditions: biotinylated peptide phosphorylation, read-out: YES_IC50
T3 construct: made in house
T3 sequence (P07947 whole entry): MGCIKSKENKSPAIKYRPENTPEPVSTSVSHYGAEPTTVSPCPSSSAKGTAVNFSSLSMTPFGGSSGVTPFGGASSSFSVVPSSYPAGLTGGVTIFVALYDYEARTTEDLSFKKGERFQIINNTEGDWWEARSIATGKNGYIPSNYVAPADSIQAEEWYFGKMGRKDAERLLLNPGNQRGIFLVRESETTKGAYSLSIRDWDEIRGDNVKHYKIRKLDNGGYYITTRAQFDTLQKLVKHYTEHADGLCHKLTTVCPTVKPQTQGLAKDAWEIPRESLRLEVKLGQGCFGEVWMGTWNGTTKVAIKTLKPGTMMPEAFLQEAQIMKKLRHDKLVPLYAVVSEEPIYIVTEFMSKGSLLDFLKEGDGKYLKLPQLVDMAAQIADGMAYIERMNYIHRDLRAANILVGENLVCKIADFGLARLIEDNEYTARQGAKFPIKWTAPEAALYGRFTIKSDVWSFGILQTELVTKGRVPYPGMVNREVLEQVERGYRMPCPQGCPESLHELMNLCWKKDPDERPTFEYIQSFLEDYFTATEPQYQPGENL
Method in brief: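 Inhibition was expressed against a compound-free control to give IC50, using TR-FRET read-out (Eu-cryptate anti-pTyr antibody, streptavidin-XL665).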

Row | SMILES | pIC50 (human Lck enzyme) | pIC50 (human Src enzyme) | pIC50 (human Yes1 enzyme)
1 | Cc1cc(Oc2c(F)cccc2F)ncc1-n1ncc(C(=O)c2cc3cc(OC(F)F)c(C4CCN(C(=O)CN)CC4)cc3[nH]2)c1N [Example 4-18-003, 2-amino-1-[4-[2-[5-amino-1-[6-(2,6-difluorophenoxy)-4-methylpyridin-3-yl]pyrazole-4-carbonyl]-5-(difluoromethoxy)-1H-indol-6-yl]piperidin-1-yl]ethanone] | 7.96 | 7.64 | 8.32
2 | Cc1cc(Oc2ccccc2F)ccc1-n1ncc(C(=O)c2cc3cc(OCC(F)F)c(C4CCN(C(=O)CN)CC4)cc3[nH]2)c1N [Example 4-18-004, 2-amino-1-[4-[2-[5-amino-1-[4-(2-fluorophenoxy)-2-methylphenyl]pyrazole-4-carbonyl]-5-(2,2-difluoroethoxy)-1H-indol-6-yl]piperidin-1-yl]ethanone] | 8.04 | 7.80 | 8.80
3 | Cc1cc(Oc2cccc(F)c2F)ccc1-n1ncc(C(=O)c2cc3cc(F)c(NS(N)(=O)=O)cc3[nH]2)c1N [Example 4-20-002, 2-[5-amino-1-[4-(2,3-difluorophenoxy)-2-methylphenyl]pyrazole-4-carbonyl]-5-fluoro-6-(sulfamoylamino)-1H-indole] | 8.08 | 7.30 | 9.00
4 | Cc1cc(Oc2c(F)cccc2F)ncc1-n1ncc(C(=O)c2cc3cc(OC(F)F)c(N4CCCC4=O)cc3[nH]2)c1N [Example 4-21-008, 1-[2-[5-amino-1-[6-(2,6-difluorophenoxy)-4-methylpyridin-3-yl]pyrazole-4-carbonyl]-5-(difluoromethoxy)-1H-indol-6-yl]pyrrolidin-2-one] | 8.18 | 7.60 | 8.39
5 | Cc1cc(Oc2ccccc2F)ccc1-n1ncc(C(=O)c2cc3cc(OC(F)F)c(NS(=O)(=O)N4CCOCC4)cc3[nH]2)c1N [Example 4-22-001, N-(2-(5-amino-1-(4-(2-fluorophenoxy)-2-methylphenyl)-1H-pyrazole-4-carbonyl)-5-(difluoromethoxy)-1H-indol-6-yl)morpholine-4-sulfonamide] | 7.47 | 7.05 | 8.59
6 | Cc1cc(Oc2ccccc2F)ncc1-n1ncc(C(=O)c2cc3cc(OC(F)F)c(NS(=O)(=O)N4CCOCC4)cc3[nH]2)c1N [Example 4-22-002, N-[2-[5-amino-1-[6-(2-fluorophenoxy)-4-methylpyridin-3-yl]pyrazole-4-carbonyl]-5-(difluoromethoxy)-1H-indol-6-yl]morpholine-4-sulfonamide] | 7.17 | 6.62 | 8.52
7 | Cc1cc(Oc2c(F)cccc2F)ncc1-n1ncc(C(=O)c2cc3cc(OC(F)F)c(NS(=O)(=O)N4CCOCC4)cc3[nH]2)c1N [Example 4-22-003, N-[2-[5-amino-1-[6-(2,6-difluorophenoxy)-4-methylpyridin-3-yl]pyrazole-4-carbonyl]-5-(difluoromethoxy)-1H-indol-6-yl]morpholine-4-sulfonamide] | 7.21 | 6.77 | 8.54
8 | Cc1cc(Oc2ccccc2F)ncc1-n1ncc(C(=O)c2cc3cc(N4CCOCC4)c(NS(=O)(=O)N4CCOCC4)cc3[nH]2)c1N [Example 4-22-004, N-[2-[5-amino-1-[6-(2-fluorophenoxy)-4-methylpyridin-3-yl]pyrazole-4-carbonyl]-5-morpholin-4-yl-1H-indol-6-yl]morpholine-4-sulfonamide] | 7.11 | 6.44 | 8.92
9 | Cc1cc(Oc2ccccc2F)ccc1-n1ncc(C(=O)c2cc3cc(OCC(F)F)c(NS(=O)(=O)N4CCOCC4)cc3[nH]2)c1N [Example 4-22-005, N-[2-[5-amino-1-[4-(2-fluorophenoxy)-2-methylphenyl]pyrazole-4-carbonyl]-5-(2,2-difluoroethoxy)-1H-indol-6-yl]morpholine-4-sulfonamide] | 7.70 | 7.36 | 8.74
10 | Cc1cc(Oc2ccccc2F)ncc1-n1ncc(C(=O)c2cc3cc(OCC(F)F)c(NS(=O)(=O)N4CCOCC4)cc3[nH]2)c1N [Example 4-22-006, N-[2-[5-amino-1-[6-(2-fluorophenoxy)-4-methylpyridin-3-yl]pyrazole-4-carbonyl]-5-(2,2-difluoroethoxy)-1H-indol-6-yl]morpholine-4-sulfonamide] | 7.29 | 6.89 | 8.72
11 | Cc1cc(Oc2c(F)cccc2F)ncc1-n1ncc(C(=O)c2cc3cc(OCC(F)F)c(N4CCN(S(C)(=O)=O)CC4)cc3[nH]2)c1N [Example 4-23-001, {5-amino-1-[6-(2,6-difluorophenoxy)-4-methylpyridin-3-yl]pyrazol-4-yl}-[5-(2,2-difluoroethoxy)-6-(4-methylsulfonylpiperazin-1-yl)-1H-indol-2-yl]methanone] | 8.09 | 7.80 | 8.89

Further molecules by rising pIC50 (human Lck enzyme), results first:

Row | pIC50 (human Lck enzyme) | pIC50 (human Src enzyme) | pIC50 (human Yes1 enzyme) | SMILES
12 | 8.19 | 8.06 | 9.29 | Cc1cc(Oc2ccccc2F)ccc1-n1ncc(C(=O)c2cc3cc(OC(F)F)c(N4CCOC4=O)cc3[nH]2)c1N [Example 4-21-007, 3-[2-[5-amino-1-[4-(2-fluorophenoxy)-2-methylphenyl]pyrazole-4-carbonyl]-5-(difluoromethoxy)-1H-indol-6-yl]-1,3-oxazolidin-2-one]
13 | 8.21 | 7.89 | 8.43 | Cc1cc(Oc2c(F)cccc2F)ncc1-n1ncc(C(=O)c2cc3cc(OCC(F)F)c(N4CCCC4=O)cc3[nH]2)c1N [Example 4-21-001, 1-{2-{5-amino-1-[6-(2,6-difluorophenoxy)-4-methylpyridin-3-yl]pyrazole-4-carbonyl}-5-(2,2-difluoroethoxy)-1H-indol-6-yl}pyrrolidin-2-one]
14 | 8.26 | 7.77 | 8.80 | Cc1cc(Oc2ccccc2F)ccc1-n1ncc(C(=O)c2cc3cc(OC(F)F)c(N4CCCC4=O)cc3[nH]2)c1N [Example 4-21-006, 1-[2-[5-amino-1-[4-(2-fluorophenoxy)-2-methylphenyl]pyrazole-4-carbonyl]-5-(difluoromethoxy)-1H-indol-6-yl]pyrrolidin-2-one]
15 | 8.37 | 7.96 | 8.92 | Cc1cc(Oc2c(F)cccc2F)ncc1-n1ncc(C(=O)c2cc3cc(OCC(F)F)c(N4CCOC4=O)cc3[nH]2)c1N [Example 4-21-005, 3-[2-[5-amino-1-[6-(2,6-difluorophenoxy)-4-methylpyridin-3-yl]pyrazole-4-carbonyl]-5-(2,2-difluoroethoxy)-1H-indol-6-yl]-1,3-oxazolidin-2-one]
16 | 8.41 | 7.55 | 9.08 | COc1cc2cc(C(=O)c3cnn(-c4cnc(Oc5c(F)cccc5F)cc4C)c3N)[nH]c2cc1NS(=O)(=O)CCCF [Example 4-19-001, N-(2-(5-amino-1-(6-(2,6-difluorophenoxy)-4-methylpyridin-3-yl)-1H-pyrazole-4-carbonyl)-5-methoxy-1H-indol-6-yl)-3-fluoropropane-1-sulfonamide]
17 | 8.46 | 7.51 | 9.19 | Cc1cc(Oc2ccccc2F)ccc1-n1ncc(C(=O)c2cc3cc(F)c(NS(N)(=O)=O)cc3[nH]2)c1N [Example 4-20-001, 2-[5-amino-1-[4-(2-fluorophenoxy)-2-methylphenyl]pyrazole-4-carbonyl]-5-fluoro-6-(sulfamoylamino)-1H-indole]
18 | 8.52 | 8.04 | 9.00 | Cc1cc(Oc2ccccc2F)cc(F)c1-n1ncc(C(=O)c2cc3cc(OCC(F)F)c(N4CCCC4=O)cc3[nH]2)c1N [Example 4-21-004, 1-[2-[5-amino-1-[2-fluoro-4-(2-fluorophenoxy)-6-methylphenyl]pyrazole-4-carbonyl]-5-(2,2-difluoroethoxy)-1H-indol-6-yl]pyrrolidin-2-one]
19 | 8.55 | 8.27 | 9.05 | Cc1cc(Oc2ccccc2F)ccc1-n1ncc(C(=O)c2cc3cc(OCC(F)F)c(N4CCCC4=O)cc3[nH]2)c1N [Example 4-21-002, 1-[2-[5-amino-1-[4-(2-fluorophenoxy)-2-methylphenyl]pyrazole-4-carbonyl]-5-(2,2-difluoroethoxy)-1H-indol-6-yl]pyrrolidin-2-one]
20 | 8.57 | 8.00 | 9.08 | Cc1cc(Oc2c(F)cccc2F)ncc1-n1ncc(C(=O)c2cc3cc(OC(F)F)c(N4CCOC4=O)cc3[nH]2)c1N [Example 4-21-009, 3-[2-[5-amino-1-[6-(2,6-difluorophenoxy)-4-methylpyridin-3-yl]pyrazole-4-carbonyl]-5-(difluoromethoxy)-1H-indol-6-yl]-1,3-oxazolidin-2-one]
21 | 8.68 | 7.82 | 8.85 | Cc1cc(-n2ncc(C(=O)c3cc4cc(F)c(NS(N)(=O)=O)cc4[nH]3)c2N)ccc1Oc1ccccc1F [Example 4-20-003, 2-[5-amino-1-[4-(2-fluorophenoxy)-3-methylphenyl]pyrazole-4-carbonyl]-5-fluoro-6-(sulfamoylamino)-1H-indole]
22 | 8.82 | 8.62 | 9.28 | Cc1cc(Oc2ccccc2F)ccc1-n1ncc(C(=O)c2cc3cc(OCC(F)F)c(N4CCOC4=O)cc3[nH]2)c1N [Example 4-21-003, 3-[2-[5-amino-1-[4-(2-fluorophenoxy)-2-methylphenyl]pyrazole-4-carbonyl]-5-(2,2-difluoroethoxy)-1H-indol-6-yl]-1,3-oxazolidin-2-one]
